# Marks after values point to notes of the source that are not given here.
# Experiment: Single subcutaneous dose [14C]-copper histidinate pharmacokinetic study in healthy adult male subjects
# Format: in vivo, human
# Settings: for Whole Blood:Serum Total Radioactivity Partitioning Ratio (Arithmetic Mean ± SD): n = 6; for Whole Blood:Serum Total Radioactivity Partitioning Ratio: 504 hour postdose, n = 1 (Subject 6)
# Text: The primary objective of this study was to quantitate total radioactivity (TRA) in whole blood, serum, and the eluted fractions of serum spiked with unlabeled copper histidinate (CuHis) from a size exclusion-high performance liquid chromatography (SEC-HPLC) column after a single subcutaneous (SC) administration of [^14C] CuHis in healthy adult male subjects. Further, the study was designed to determine the percentage of ^14C radioactivity associated with cellular components in whole blood over time (e.g., whole blood:serum partitioning concentration ratio).
# To evaluate the safety and tolerability after a single SC administration of [^14C] CuHis in healthy adult male subjects. This was an open-label, single-dose, 1-period, PK study conducted at 1 study center in the USA. Six (6) healthy, adult male subjects were enrolled. Screening of subjects occurred within 28 days prior to dosing.
# On Day 1, a single SC 3.0 mg (˜500 nCi) dose of [^14C]-CuHis was administered. Pharmacokinetic (PK) samples for determining TRA in whole blood and serum, and [^14C] CuHis in eluted fractions of serum spiked with unlabeled CuHis from an SEC-HPLC column were collected pre-dose and up to 168 hours post-dose (Subjects 1 to 5) or 504 hours post-dose (Subject 6).
# A single dose of 3.0 mg (˜500 nCi) [^14C]-CuHis (equivalent to approximately 500 μg of elemental copper) for SC bolus injection was administered into the upper arm of each subject at Hour 0 on Day 1. Hour 0 corresponded to the start of the bolus SC administration on Day 1. Subjects were instructed not to rub the injection site(s).
# Blood samples for determining TRA in whole blood and serum, and [^14C]-CuHis in eluted fractions of serum spiked with unlabeled CuHis from a SEC-HPLC column were collected predose and up to 168 hours postdose (Subjects 1 to 5) or up to 504 hours postdose (Subject 6).
# TRA CuHis concentration equivalents in whole blood and serum were determined using accelerator mass spectrometry (AMS) at Pharmaron ABS, Inc. (Germantown, Maryland, USA). The lower limits of quantitation (LLOQ) for TRA CuHis concentration equivalents in whole blood and serum ranged from 0.711 to 0.770 ng eq CuHis/mL and 0.239 to 0.284 ng eq CuHis/mL in the different subjects, respectively.
# [^14C]-CuHis concentrations in serum fractions from the SEC-HPLC column were determined using AMS at Pharmaron ABS, Inc. (Germantown, Maryland, USA). The LLOQ for [^14C]-CuHis concentrations in serum was 0.270 ng/mL.
# Whole blood: serum TRA partitioning ratios were calculated at each postdose time point for each subject as the ratio between whole blood TRA CuHis concentration equivalents and serum TRA CuHis concentration equivalents. The following parameters were calculated for whole blood and serum TRA, and serum [^14C]-CuHis, when possible: AUC0-24, AUC0-last, AUC0-∞, AUC% extrap, Cmax, tmax, tlag, Kel, and t1/2. The AUC0-24 Ratio was calculated for serum [^14C]-CuHis versus serum TRA. CL/F and Vz/F were calculated for serum [^14C]-CuHis.
# Whole blood and serum TRA CuHis concentration equivalents, serum [^14C]-CuHis concentrations, and whole blood:serum TRA partitioning ratios were listed and summarized by time point for all subjects in the PK population. Summary statistics, including sample size (n), arithmetic mean (Mean), standard deviation (SD), coefficient of variation (CV %), standard error of the mean (SEM), minimum, median, and maximum were calculated for the above data at each nominal time point.
# Whole blood and serum TRA PK parameters, and serum [^14C]-CuHis PK parameters were listed for each subject and summarized for all subjects in the PK population. Summary statistics (n, Mean, SD, CV %, SEM, minimum, median, maximum, geometric mean [Geom Mean], and geometric CV % [Geom CV %]) were calculated for all PK parameters.
# [1] = single SC 3.0 mg, arithmetic mean ± SD
# [2] = single SC 3.0 mg, geometric mean (geometric CV%)
# [3] = single SC 3.0 mg, median (minimum, maximum)
# [4] = single SC 3.0 mg, median (minimum, maximum), listed as [^14C]-CuHis
# [5] = single SC 3.0 mg, up to 168 h, Subject 6 excluded, geometric mean (geometric CV%)
structure (smiles),measurement,setting,value
N[C@@H](Cc1c[nH]cn1)C(=O)O.N[C@@H](Cc1c[nH]cn1)C(=O)O.[Cu] [[^14C]-Copper Histidinate],Whole Blood:Serum Total Radioactivity Partitioning Ratio (Arithmetic Mean ± SD),0.25 hour postdose,0.6165 ± 0.1072
same,Whole Blood:Serum Total Radioactivity Partitioning Ratio (Arithmetic Mean ± SD),0.5 hour postdose,0.6410 ± 0.05811
same,Whole Blood:Serum Total Radioactivity Partitioning Ratio (Arithmetic Mean ± SD),0.75 hour postdose,0.6426 ± 0.05966
same,"arithmetic mean serum CuHis concentration, peak",0.75 hours postdose,63.47 ng/mL
same,Whole Blood:Serum Total Radioactivity Partitioning Ratio (Arithmetic Mean ± SD),1 hour postdose,0.6888 ± 0.06107
same,Whole Blood:Serum Total Radioactivity Partitioning Ratio (Arithmetic Mean ± SD),1.5 hour postdose,0.6728 ± 0.0542
same,Whole Blood:Serum Total Radioactivity Partitioning Ratio (Arithmetic Mean ± SD),2 hour postdose,0.6761 ± 0.03446
same,Whole Blood:Serum Total Radioactivity Partitioning Ratio (Arithmetic Mean ± SD),4 hour postdose,0.7010 ± 0.09398
same,Whole Blood:Serum Total Radioactivity Partitioning Ratio (Arithmetic Mean ± SD),8 hour postdose,0.5856 ± 0.1175
same,"arithmetic mean serum TRA CuHis concentration equivalent, peak",8 hours postdose,97.43 ng eq CuHis/mL
same,Whole Blood:Serum Total Radioactivity Partitioning Ratio (Arithmetic Mean ± SD),16 hour postdose,0.7144 ± 0.1134
same,Whole Blood:Serum Total Radioactivity Partitioning Ratio (Arithmetic Mean ± SD),24 hour postdose,0.6708 ± 0.08484
same,Whole Blood:Serum Total Radioactivity Partitioning Ratio (Arithmetic Mean ± SD),36 hour postdose,0.7498 ± 0.04878
same,Whole Blood:Serum Total Radioactivity Partitioning Ratio (Arithmetic Mean ± SD),"36 hour postdose, listed as [^14C]-CuHis",0.7498
same,Whole Blood:Serum Total Radioactivity Partitioning Ratio (Arithmetic Mean ± SD),48 hour postdose,0.8329 ± 0.09811
same,Whole Blood:Serum Total Radioactivity Partitioning Ratio (Arithmetic Mean ± SD),72 hour postdose,1.209 ± 0.1925
same,Whole Blood:Serum Total Radioactivity Partitioning Ratio (Arithmetic Mean ± SD),96 hour postdose,1.612 ± 0.3461
same,Whole Blood:Serum Total Radioactivity Partitioning Ratio (Arithmetic Mean ± SD),120 hour postdose,1.853 ± 0.3512
same,Whole Blood:Serum Total Radioactivity Partitioning Ratio (Arithmetic Mean ± SD),144 hour postdose,2.163 ± 0.3333
same,Whole Blood:Serum Total Radioactivity Partitioning Ratio (Arithmetic Mean ± SD),168 hour postdose,2.392 ± 0.222
same,Whole Blood:Serum Total Radioactivity Partitioning Ratio (Arithmetic Mean ± SD),"168 hour postdose, listed as [^14C]-CuHis",2.392
same,"arithmetic mean whole blood TRA CuHis concentration equivalents, highest level",168 hours postdose,100.9 ng eq CuHis/mL
same,Whole Blood:Serum Total Radioactivity Partitioning Ratio,,2.160*
same,Whole Blood:Serum Total Radioactivity Partitioning Ratio,listed as [^14C]-CuHis,2.16
same,serum TRA CuHis concentration equivalent,"504 hours postdose, Subject 6",30.7 ng eq CuHis/mL
same,whole blood TRA CuHis concentration equivalent,"504 hours postdose, Subject 6",66.3 ng eq CuHis/mL
same,exposure to TRA (AUC0-last) higher in whole blood than in serum,by 168 hours postdose,approximately 29%
same,exposure to TRA (AUC0-24) lower in whole blood than in serum,first 24 hours postdose,approximately 34%
same,exposure to TRA in the serum associated with [14C]-CuHis,first 24 hours postdose,Approximately 9%
same,"distribution phase half-life, serum [14C]-CuHis","initial rapid decrease after peak, estimated",2 to 3 h
same,"peak exposure to TRA (Cmax), whole blood compared with serum",single SC 3.0 mg,similar
same,"AUC0-∞, serum total radioactivity","single SC 3.0 mg, Subject 6 excluded, geometric mean (geometric CV%)",23390 (25.7) [n = 5]^c ng eq CuHis · hr/mL
same,"AUC% extrap, serum [14C]-copper histidinate",[1],12.37 ± 8.3964 [n = 5]^e %
same,"AUC% extrap, serum total radioactivity",[1],58.34 ± 12.677 [n = 5]^c %
same,"CL/F, serum [14C]-copper histidinate",[1],10.34 ± 1.6214 [n = 5]^e L/hr
same,"Kel, serum [14C]-copper histidinate",[1],0.0166 ± 0.01512 [n =5]^e 1/hr
same,"Kel, serum total radioactivity",[1],0.003278 ± 0.001588 [n = 5]^c 1/hr
same,"t1/2, serum [14C]-copper histidinate (terminal elimination phase)",[1],74.842 ± 49.1558 [n = 5]^e hr
same,"t1/2, serum [14C]-copper histidinate (terminal elimination phase)","single SC 3.0 mg, arithmetic mean ± SD, listed as [^14C]-CuHis",~75 h
same,"AUC0-24, serum [14C]-copper histidinate",[2],185.6 (20.6) ng · hr/mL
same,"AUC0-24, serum total radioactivity",[2],1993 (21.4) [n = 6] ng eq CuHis · hr/mL
same,"AUC0-24, whole blood total radioactivity",[2],1315 (30.4) [n = 6] ng eq CuHis · hr/mL
same,"AUC0-24 Ratio, serum [14C]-CuHis versus serum total radioactivity",[2],0.09317 (19.5) [n = 6]
same,"AUC0-last, serum [14C]-copper histidinate",[2],249.3 (10.6) ng · hr/mL
same,"AUC0-∞, serum [14C]-copper histidinate",[2],296.0 (15.3) ng · hr/mL
same,"Cmax, serum [14C]-copper histidinate",[2],67.14 (35.9) ng/mL
same,"Cmax, serum total radioactivity",[2],95.78 (24.3) [n = 6] ng eq CuHis/mL
same,"Cmax, whole blood total radioactivity",[2],100.1 (14.8) [n = 6] ng eq CuHis/mL
same,"AUC0-24 Ratio, serum [14C]-CuHis versus serum total radioactivity","single SC 3.0 mg, geometric mean (geometric CV%), listed as [^14C]-CuHis",0.09317
same,"tlag, serum [14C]-copper histidinate",[3],"0.00 (0.00, 0.00) [n = 6] hr"
same,"tlag, serum total radioactivity",[3],"0.00 (0.00, 0.00) [n = 6] hr"
same,"tlag, whole blood total radioactivity",[3],"0.00 (0.00, 0.00) [n = 6] hr"
same,"tmax, serum [14C]-copper histidinate",[3],"0.747 (0.50, 0.76) hr"
same,"tmax, serum total radioactivity",[3],"8.007 (7.99, 16.02) [n = 6] hr"
same,"tmax, whole blood total radioactivity",[3],"168.006 (144.01, 168.03) [n = 6] hr"
same,"tmax, serum [14C]-copper histidinate",[4],0.75 h
same,"tmax, serum total radioactivity",[4],~8 h
same,"tmax, whole blood total radioactivity",[4],~168 h
same,"AUC0-last, serum total radioactivity",[5],9390 (13.4) [n = 5]^c ng eq CuHis · hr/mL
same,"AUC0-last, whole blood total radioactivity",[5],12130 (15.3) [n = 5]^c ng eq CuHis · hr/mL

# From patent publication US20240139236A1, “COPPER HISTIDINATE COMPOSITIONS AND USES THEREOF” (Cyprium Therapeutics, Inc., priority 2021, published 2024)
